Assay results reported in US5693672A, “3,4,5-substituted benzoylguanidines, process for their preparation, their use as a medicament or diagnostic and medicament containing them” (priority 1992, dated 1997).
Counter-ions that a name gives are not always drawn.

Key:
[1] = biological target: T1, Na^+ /H^+ exchanger of rabbit erythrocytes (Oryctolagus cuniculus, UniProt P23791); test: Inhibition of the Na^+ /H^+ exchanger of rabbit erythrocytes (amiloride-sensitive Na^+ influx, flame photometry); assay type: cell-based, White New Zealand rabbits; details: pH 7.4, 37° C.
T1 construct: endogenous in cells; host or cells: erythrocytes in blood from the ear arteries of cholesterol-fed White New Zealand rabbits
T1 sequence (P23791 whole entry): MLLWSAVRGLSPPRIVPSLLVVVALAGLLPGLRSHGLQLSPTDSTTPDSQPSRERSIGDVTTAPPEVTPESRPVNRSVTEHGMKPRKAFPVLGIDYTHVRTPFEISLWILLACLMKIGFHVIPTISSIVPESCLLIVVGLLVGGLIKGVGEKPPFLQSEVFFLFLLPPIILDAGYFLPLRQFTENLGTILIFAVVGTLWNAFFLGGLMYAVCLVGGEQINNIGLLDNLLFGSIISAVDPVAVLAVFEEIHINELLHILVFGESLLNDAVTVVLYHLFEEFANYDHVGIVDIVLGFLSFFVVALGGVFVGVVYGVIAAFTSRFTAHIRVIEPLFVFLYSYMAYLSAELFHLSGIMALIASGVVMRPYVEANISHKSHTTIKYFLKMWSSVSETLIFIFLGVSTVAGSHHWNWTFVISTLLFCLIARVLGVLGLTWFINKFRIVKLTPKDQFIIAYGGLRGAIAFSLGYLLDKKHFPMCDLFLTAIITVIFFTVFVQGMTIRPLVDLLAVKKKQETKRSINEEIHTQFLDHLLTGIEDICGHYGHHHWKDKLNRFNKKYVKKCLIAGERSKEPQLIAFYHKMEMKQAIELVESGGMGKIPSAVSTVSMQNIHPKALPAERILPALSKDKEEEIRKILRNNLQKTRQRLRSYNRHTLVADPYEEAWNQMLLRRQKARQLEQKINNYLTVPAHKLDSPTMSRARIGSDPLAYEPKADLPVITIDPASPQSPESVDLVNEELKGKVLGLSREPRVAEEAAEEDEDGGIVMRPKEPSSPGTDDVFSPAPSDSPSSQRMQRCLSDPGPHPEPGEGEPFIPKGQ
Description: Inhibitors of the Na^+ /H^+ exchanger of rabbit erythrocytes:
White New Zealand rabbits (Ivanovas) received a standard diet containing 2% cholesterol for six weeks in order to activate Na^+ /H^+ exchange and thus to be able to determine the Na^+ influx into the erythrocytes via Na^+ /H^+ exchange by flame photometry. The blood was taken from the ear arteries and rendered incoagulable by 25 IU/ml of potassium heparin. A part of each sample was used for the duplicate determination of the hematocrit by centrifugation. Aliquots of 100 μl in each case were used to measure the Na^+ starting content of the erythrocytes.
In order to determine the amiloride-sensitive sodium influx, 100 μl of each blood sample were incubated at pH 7.4 and 37° C. in 5 ml in each case of a hyperosmolar salt/sucrose medium (mmol/1:140 NaCl, 3 KCl, 150 sucrose, 0.1 ouabain, 20 tris(hydroxymethyl)aminomethane). The erythrocytes were then washed three times with ice-cold MgCl2 /ouabain solution (mmol/1:112 MgCl2, 0.1 ouabain) and hemolized in 2.0 ml of distilled water. The intracellular sodium content was determined by flame photometry.
The Na^+ net influx was calculated from the difference between sodium starting values and the sodium content of the erythrocytes after incubation. The amiloride-inhibitable sodium influx resulted from the difference between the sodium content of the erythrocytes after incubation with and without 3×10^-4 mol/l amiloride. The process was also carried out in this manner in the case of the compounds according to the invention.

[2] = test system: artificially induced ventricular fibrillation; details: rat hearts, isolated; cited from earlier work
cardiac arrhythmias = details: in vivo; cited from earlier work

With `CS(=O)(=O)c1cc(C(=O)N=C(N)N)ccc1-c1ccc2ccccc2c1` [Example 2, 3-Methylsulfonyl-4-(2-naphthyl)benzoylguanidine hydrochloride] the IC50 [1] was 500 nM.

With `CS(=O)(=O)c1cc(C(=O)N=C(N)N)ccc1-c1cccc(-c2ccccc2)c1` [Example 3, 3-Methylsulfonyl-4-(3-biphenyl)benzoylguanidine hydrochloride] the IC50 [1] was over 1000 nM.

`CS(=O)(=O)c1cc(C(=O)N=C(N)N)ccc1C1CCCCC1` [Example 5, 4-Cyclohexyl-3-methylsulfonylbenzoylguanidine hydrochloride] showed an IC50 [1] of 1700 nM.

Work on `CS(=O)(=O)c1cc(C(=O)N=C(N)N)ccc1-c1ccccn1` [Example 6, 3-Methylsulfonyl-4-(2'-pyridyl)benzoylguanidine hydrochloride] yielded an IC50 [1] of over 1000 nM.

Molecule `CS(=O)(=O)c1cc(C(=O)N=C(N)N)ccc1C#Cc1ccccc1` [Example 7, 3-Methylsulfonyl-4-[(2'-phenyl)ethynyl]benzoylguanidine hydrochloride] has an IC50 [1] of 200 nM.

Molecule `CS(=O)(=O)c1cc(C(=O)N=C(N)N)ccc1CCc1ccccc1` [Example 9, 3-Methylsulfonyl-4-phenylethylbenzoylguanidine hydrochloride] has an IC50 [1] of 900 nM.

Work on `CS(=O)(=O)c1cc(C(=O)N=C(N)N)ccc1C1CCCC1` [Example 10, 4-Cyclopentyl-3-methylsulfonylbenzoylguanidine hydrochloride] yielded an IC50 [1] of 100 nM.

For `CS(=O)(=O)c1cc(C(=O)N=C(N)N)cc(C2CCCC2)c1` [Example 13, 3-Cyclopentyl-5-methylsulfonylbenzoylguanidine hydrochloride], the IC50 [1] was 3000 nM.

In the case of `NC(N)=NC(=O)c1nc(Cl)c(N)nc1N` [amiloride], the “suppression of artificially induced ventricular fibrillation” value [2] is given as “suppressed completely”, the accompanying side effects (cardiac arrhythmias) is given as “hypotensive and saluretic action” and the antiarrhythmic effect (cardiac arrhythmias) is given as “only slightly pronounced”.

In the case of `CCN(c1nc(N)c(C(=O)N=C(N)N)nc1Cl)C(C)C` [ethylisopropylamiloride, Ethylisopropylamiloride], the “potency relative to amiloride in the ventricular fibrillation model” value [2] is listed as “even more potent than amiloride”.
